We go through 5 compounds from ChEMBL document CHEMBL1145852, “Drug rings database with web interface. A tool for identifying alternative chemical rings in lead discovery programs” (J Med Chem, 2003).

In the assay the target is T1, Endothelin-1 receptor (Homo sapiens, UniProt P25101).
T1 sequence (P25101 whole entry): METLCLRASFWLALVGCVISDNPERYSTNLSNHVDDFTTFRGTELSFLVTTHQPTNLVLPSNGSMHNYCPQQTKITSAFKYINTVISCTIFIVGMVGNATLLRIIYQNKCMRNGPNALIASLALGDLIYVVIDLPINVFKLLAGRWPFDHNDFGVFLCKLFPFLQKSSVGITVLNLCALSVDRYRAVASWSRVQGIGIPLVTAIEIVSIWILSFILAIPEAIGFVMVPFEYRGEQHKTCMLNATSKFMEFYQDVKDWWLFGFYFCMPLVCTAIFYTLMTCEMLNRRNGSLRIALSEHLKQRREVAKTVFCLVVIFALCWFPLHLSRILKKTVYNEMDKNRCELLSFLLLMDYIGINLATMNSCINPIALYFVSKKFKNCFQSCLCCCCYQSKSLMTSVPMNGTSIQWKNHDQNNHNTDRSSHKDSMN
The experiment in a line: Potency at Endothelin A receptor was determined.
One may read the IC50 as the concentration that gives 50% inhibition. Take `CCCOc1ccc2c(c1)c(-c1ccc3c(c1)OCO3)c(C(=O)O)n2Cc1ccc2c(c1)OCO2`: the concentration for half-maximal inhibition (IC50) came out at 250 nM. That is a sub-micromolar value.
`COc1cc2c(-c3ccc4c(c3)OCO4)c(C(=O)O)n(Cc3ccc4c(c3)OCO4)c2cc1OC` registered a half-inhibitory concentration (IC50) of 150 nM.
The value for `COc1cc2c(-c3ccc4c(c3)OCO4)c(C(=O)O)n(Cc3ccc4nsnc4c3)c2cc1OC` was 33 nM; that for `CCCOc1ccc2c(c1)c(-c1ccc3c(c1)OCO3)c(C(=O)O)n2Cc1ccc2nsnc2c1` was 97 nM.
Take `CCCOc1ccc2c(c1)c(-c1ccc3c(c1)OCO3)c(C(=O)O)n2Cc1ccc2nonc2c1`: the midpoint of inhibition, the IC50, lay at 2500 nM. Against the preceding compound, the IC50 is about 26-fold higher.
